Here are results for 18 molecules from ChEMBL document CHEMBL6074624, “FDA-approved small molecule kinase inhibitors for cancer treatment (2001-2015): Medical indication, structural optimization, and binding mode Part I” (Bioorg Med Chem, 2024).

The test system of one data set is A549. As to the kind of experiment: cells. As to conditions: Homo sapiens, A549, 72 h.
Data set [1] deals with Cyclin-dependent kinase 2 (Homo sapiens, UniProt P24941). Kind of data set: Inhibition of CDK2 (unknown origin).
Data set [2] relates to NCI-H1975. As to the kind of experiment: Antiproliferative activity against human NCI-H1975 cells assessed as reduction in cell viability after 24 hrs by MTT assay. It counts as functional, cell-based. As to conditions: NCI-H1975, 24 h.
The target in data set [3] is Epidermal growth factor receptor (Homo sapiens, UniProt P00533, L858R/T790M). As to the kind of experiment: Inhibition of EGFR L858R/T790M (unknown origin).
The subject of data set [4] is PC-9. Kind of data set: Antiproliferative activity against human PC-9 cells assessed as reduction in cell growth incubated for 72 hrs by MTT assay. The settings on record: PC-9, 72 h. It counts as functional, cell-based.
Data set [5] in a line: Inhibition of PDGFR (unknown origin) in NIH3T3 cells. It counts as cell-based, Homo sapiens.
Data set [6] can be described thus: Half life in mouse at 10 mg/kg, po by LC-MS/MS analysis. It counts as ADME, organism-based. The settings on record: in vivo.
The target in data set [7] is T1, Tyrosine-protein kinase Lck (Homo sapiens, UniProt P06239). As to the kind of experiment: Inhibition of human LCK.
The next data set concerns KB. Kind of data set: cells. As to conditions: Homo sapiens, 72 h.
The target in data set [8] is Epidermal growth factor receptor (Homo sapiens, UniProt P00533).
Data set [9] deals with Mast/stem cell growth factor receptor Kit (Homo sapiens, UniProt P10721). As to the kind of experiment: Inhibition of c-Kit (unknown origin).
The test system of a further data set is PC-3. Kind of data set: Antiproliferative activity against human PC-3 cells. It counts as functional, cell-based.
In data set [10] the target is T1, Tyrosine-protein kinase Lck.
The next data set deals with MDA-MB-231. Kind of data set: Antiproliferative activity against human MDA-MB-231 cells. It counts as functional, cell-based.
Data set [11] deals with Tyrosine-protein kinase Yes (Homo sapiens, UniProt P07947). Kind of data set: Inhibition of YES1 (unknown origin).
For data set [12], the target named is Proto-oncogene tyrosine-protein kinase Src (Homo sapiens, UniProt P12931). As to the kind of experiment: Inhibition of SRC (unknown origin).
In data set [13] the target is Vascular endothelial growth factor receptor 2 (Homo sapiens, UniProt P35968). Kind of data set: Binding affinity to VEGFR-2 (unknown origin) assessed as inhibition constant.
A short description of data set [14]: Cytotoxicity against HUVEC cells assessed as reduction in cell viability after 72 hrs by CellTiter-Glo assay. As to conditions: human. It counts as toxicity, cell-based.
For the next data set, the system named is HT-29. As to the kind of experiment: Antiproliferative activity against human HT-29 cells assessed as reduction in cell viability after 72 hrs by MTS assay. It counts as functional, cell-based. As to conditions: HT-29, 72 h.
Another data set deals with ACHN. As to the kind of experiment: Antiproliferative activity against human ACHN cells assessed as reduction in cell viability measured after 48 hrs by SRB assay. It counts as functional, cell-based.
For a further data set, the system named is Calu-3. As to the kind of experiment: Growth inhibition of human Calu-3 cells. It counts as functional.
Data set [15] deals with PC-9. Kind of data set: Growth inhibition of human PC-9 cells. It counts as functional.
Data set [16] concerns PC-9. As to the kind of experiment: Antiproliferative activity against human PC-9 cells harboring EGFR L858R mutant assessed as reduction in cell viability measured after 72 hrs by SRB assay. It counts as functional, cell-based. The settings on record: PC-9, 72 h.
Data set [17] relates to NCI-H1975. As to the kind of experiment: Growth inhibition of human NCI-H1975 cells. It counts as functional.
Data set [18] addresses Voltage-gated inwardly rectifying potassium channel KCNH2 (Homo sapiens, UniProt Q12809). As to the kind of experiment: Inhibition of hERG. It counts as toxicity.
Data set [19] can be described thus: Anticancer activity against human NCI-H1975 cells harboring EGFR L858R/T790M mutant assessed as reduction in cell viability measured after 72 hrs by MTT assay. It counts as functional, cell-based. As to conditions: NCI-H1975, 72 h.
The nature of data set [20]: Aqueous solubility of compound at pH 7.4 by LC-MS/MS analysis. It counts as physicochemical. As to conditions: buffer.

≈ marks a conversion by molar mass, not a printed value.

T1 sequence (P06239 whole entry): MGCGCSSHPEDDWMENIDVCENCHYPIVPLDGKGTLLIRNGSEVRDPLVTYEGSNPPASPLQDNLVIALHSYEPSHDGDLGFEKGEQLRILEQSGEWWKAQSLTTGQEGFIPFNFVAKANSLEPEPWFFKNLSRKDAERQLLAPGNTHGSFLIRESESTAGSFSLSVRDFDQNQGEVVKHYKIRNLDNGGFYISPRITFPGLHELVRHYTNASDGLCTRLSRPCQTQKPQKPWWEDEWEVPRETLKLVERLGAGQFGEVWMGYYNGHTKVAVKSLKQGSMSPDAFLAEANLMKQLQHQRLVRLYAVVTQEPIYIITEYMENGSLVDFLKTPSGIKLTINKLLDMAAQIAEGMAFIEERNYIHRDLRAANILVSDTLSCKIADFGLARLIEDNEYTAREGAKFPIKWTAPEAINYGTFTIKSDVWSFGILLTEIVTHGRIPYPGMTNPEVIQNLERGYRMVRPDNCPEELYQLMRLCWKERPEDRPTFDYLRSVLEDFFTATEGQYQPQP
Epidermal growth factor receptor (Homo sapiens, UniProt P00533, L858R/T790M), sequence (P00533 25-1210 T790M/L858R limits assumed): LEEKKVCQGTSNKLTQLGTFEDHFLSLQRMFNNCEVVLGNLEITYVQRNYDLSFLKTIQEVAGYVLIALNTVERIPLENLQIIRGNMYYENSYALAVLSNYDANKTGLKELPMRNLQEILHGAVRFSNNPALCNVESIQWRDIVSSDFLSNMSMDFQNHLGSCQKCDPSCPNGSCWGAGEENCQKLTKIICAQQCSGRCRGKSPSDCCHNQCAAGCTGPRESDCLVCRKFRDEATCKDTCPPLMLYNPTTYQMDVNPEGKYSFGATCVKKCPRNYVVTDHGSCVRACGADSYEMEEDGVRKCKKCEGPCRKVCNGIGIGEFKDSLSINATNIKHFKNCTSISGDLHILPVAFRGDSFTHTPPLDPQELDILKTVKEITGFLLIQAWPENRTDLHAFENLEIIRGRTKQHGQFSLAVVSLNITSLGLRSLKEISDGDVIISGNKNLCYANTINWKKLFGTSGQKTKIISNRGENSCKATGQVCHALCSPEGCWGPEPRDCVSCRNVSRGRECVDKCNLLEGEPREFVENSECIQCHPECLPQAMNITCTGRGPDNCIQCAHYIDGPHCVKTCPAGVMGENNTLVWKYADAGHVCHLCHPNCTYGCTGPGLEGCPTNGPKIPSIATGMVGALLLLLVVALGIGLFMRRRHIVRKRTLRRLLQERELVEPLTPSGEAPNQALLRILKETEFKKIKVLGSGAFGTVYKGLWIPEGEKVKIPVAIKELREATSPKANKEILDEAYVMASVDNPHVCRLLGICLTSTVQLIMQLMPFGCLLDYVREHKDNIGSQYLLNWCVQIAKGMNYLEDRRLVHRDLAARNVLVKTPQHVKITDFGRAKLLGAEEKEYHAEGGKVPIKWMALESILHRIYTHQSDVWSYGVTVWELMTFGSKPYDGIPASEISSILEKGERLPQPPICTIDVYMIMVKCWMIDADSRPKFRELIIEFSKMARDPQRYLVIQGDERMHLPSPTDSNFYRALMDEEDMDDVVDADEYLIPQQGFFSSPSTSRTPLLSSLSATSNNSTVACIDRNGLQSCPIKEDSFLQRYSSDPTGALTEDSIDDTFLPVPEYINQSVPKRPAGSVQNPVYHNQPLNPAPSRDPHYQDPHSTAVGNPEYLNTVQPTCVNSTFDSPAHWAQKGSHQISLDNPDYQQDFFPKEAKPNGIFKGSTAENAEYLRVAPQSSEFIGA
Voltage-gated inwardly rectifying potassium channel KCNH2, sequence (Q12809 whole entry): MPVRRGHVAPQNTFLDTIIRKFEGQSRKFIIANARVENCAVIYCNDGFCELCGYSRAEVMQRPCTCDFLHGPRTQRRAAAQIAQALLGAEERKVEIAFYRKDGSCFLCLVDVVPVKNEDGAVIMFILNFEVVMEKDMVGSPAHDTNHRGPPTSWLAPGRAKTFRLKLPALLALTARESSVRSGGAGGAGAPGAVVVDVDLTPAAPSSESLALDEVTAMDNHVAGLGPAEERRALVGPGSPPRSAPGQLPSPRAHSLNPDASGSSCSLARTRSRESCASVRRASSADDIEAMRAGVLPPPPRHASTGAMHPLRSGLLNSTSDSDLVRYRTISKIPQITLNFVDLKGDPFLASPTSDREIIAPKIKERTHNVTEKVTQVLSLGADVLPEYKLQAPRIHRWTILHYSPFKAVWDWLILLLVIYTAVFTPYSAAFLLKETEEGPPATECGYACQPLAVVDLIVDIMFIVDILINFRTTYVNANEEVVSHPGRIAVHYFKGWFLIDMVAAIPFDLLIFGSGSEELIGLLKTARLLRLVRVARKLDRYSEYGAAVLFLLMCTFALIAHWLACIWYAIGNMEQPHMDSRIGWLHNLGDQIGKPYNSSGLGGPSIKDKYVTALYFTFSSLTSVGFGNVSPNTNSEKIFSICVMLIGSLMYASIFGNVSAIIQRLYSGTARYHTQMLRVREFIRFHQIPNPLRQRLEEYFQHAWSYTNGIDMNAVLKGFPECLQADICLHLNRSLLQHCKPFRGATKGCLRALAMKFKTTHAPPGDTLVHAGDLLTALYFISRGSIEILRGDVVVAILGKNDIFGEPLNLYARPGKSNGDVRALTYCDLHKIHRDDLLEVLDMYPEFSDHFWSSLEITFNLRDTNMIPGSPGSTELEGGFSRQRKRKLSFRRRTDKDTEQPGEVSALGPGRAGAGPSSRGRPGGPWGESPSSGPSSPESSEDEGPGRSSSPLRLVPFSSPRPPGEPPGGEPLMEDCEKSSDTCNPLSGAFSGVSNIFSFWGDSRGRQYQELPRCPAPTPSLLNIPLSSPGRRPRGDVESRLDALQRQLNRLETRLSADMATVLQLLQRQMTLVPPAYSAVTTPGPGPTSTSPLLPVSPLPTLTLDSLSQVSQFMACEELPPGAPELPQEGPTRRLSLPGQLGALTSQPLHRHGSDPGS
Proto-oncogene tyrosine-protein kinase Src, sequence (P12931 2-536 limits assumed): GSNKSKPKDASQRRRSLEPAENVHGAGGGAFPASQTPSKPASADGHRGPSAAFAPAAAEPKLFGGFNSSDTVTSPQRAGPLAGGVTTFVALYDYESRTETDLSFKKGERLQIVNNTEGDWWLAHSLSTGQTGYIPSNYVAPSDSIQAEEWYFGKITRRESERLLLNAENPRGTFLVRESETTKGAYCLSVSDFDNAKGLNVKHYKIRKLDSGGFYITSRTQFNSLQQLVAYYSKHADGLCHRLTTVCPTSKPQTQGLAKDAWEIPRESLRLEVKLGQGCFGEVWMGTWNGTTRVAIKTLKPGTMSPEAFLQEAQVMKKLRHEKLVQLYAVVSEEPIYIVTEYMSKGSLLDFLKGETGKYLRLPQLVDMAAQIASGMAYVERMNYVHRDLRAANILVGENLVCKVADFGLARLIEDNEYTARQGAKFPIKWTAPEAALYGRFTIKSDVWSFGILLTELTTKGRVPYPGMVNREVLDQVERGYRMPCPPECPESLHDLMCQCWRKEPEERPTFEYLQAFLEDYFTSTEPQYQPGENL
Epidermal growth factor receptor (Homo sapiens, UniProt P00533), sequence (P00533 whole entry): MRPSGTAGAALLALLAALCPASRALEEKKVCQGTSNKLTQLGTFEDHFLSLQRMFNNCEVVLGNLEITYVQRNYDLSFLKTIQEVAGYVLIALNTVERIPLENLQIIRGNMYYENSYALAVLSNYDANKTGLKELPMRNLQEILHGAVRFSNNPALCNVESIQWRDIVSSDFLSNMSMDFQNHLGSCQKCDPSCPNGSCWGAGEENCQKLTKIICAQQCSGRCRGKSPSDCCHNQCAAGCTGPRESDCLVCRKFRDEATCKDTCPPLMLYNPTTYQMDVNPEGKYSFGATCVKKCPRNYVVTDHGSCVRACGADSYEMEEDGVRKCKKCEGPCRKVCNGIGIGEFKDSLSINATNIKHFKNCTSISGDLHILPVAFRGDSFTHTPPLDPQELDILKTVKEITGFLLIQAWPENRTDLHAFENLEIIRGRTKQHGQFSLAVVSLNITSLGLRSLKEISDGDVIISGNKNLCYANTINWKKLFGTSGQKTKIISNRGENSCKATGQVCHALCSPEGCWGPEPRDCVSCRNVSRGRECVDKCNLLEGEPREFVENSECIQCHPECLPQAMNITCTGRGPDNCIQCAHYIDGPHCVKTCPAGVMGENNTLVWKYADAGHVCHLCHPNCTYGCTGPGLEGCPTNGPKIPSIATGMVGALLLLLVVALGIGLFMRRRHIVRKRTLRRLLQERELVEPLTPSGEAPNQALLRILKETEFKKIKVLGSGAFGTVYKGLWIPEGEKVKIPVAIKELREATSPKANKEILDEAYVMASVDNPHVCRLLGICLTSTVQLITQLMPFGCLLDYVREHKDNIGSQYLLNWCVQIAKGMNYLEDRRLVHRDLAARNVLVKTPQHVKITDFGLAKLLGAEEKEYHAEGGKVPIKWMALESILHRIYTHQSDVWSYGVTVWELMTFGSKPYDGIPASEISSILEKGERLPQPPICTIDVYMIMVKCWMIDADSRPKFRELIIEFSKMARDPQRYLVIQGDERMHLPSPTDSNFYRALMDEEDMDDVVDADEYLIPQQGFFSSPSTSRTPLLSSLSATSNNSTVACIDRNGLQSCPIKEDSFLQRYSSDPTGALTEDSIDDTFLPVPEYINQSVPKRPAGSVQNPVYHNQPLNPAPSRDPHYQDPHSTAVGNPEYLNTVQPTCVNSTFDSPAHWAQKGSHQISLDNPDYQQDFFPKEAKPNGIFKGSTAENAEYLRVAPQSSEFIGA

In the data set with A549, `CC(Oc1cc(-c2cnn(C3CCNCC3)c2)cnc1N)c1c(Cl)ccc(F)c1Cl` (centres undefined) displayed an IC50 of 20 nM.
`CCOC(=O)c1c(C)c2cnc(Nc3ccc(N4CCNCC4)cc3)nc2n(C2CCCC2)c1=O` had a concentration for half-maximal inhibition (IC50) in data set [1] of more than 5000 nM.
As for `COc1cc(N2CCN(C(C)=O)CC2)ccc1Nc1ncc(Cl)c(-c2c[nH]c3ccccc23)n1`, the 50% inhibitory concentration (IC50) with NCI-H1975 [2] was 770 nM; in data set [3] it was 100 nM.
With `C=CC(=O)Nc1cccc(Nc2ncc(Cl)c(-c3c[nH]c4ccccc34)n2)c1`, the figures for the IC50 in the data set with PC-9 [4] and in the data set with NCI-H1975 [2] were 20 nM and 80 nM, respectively.
With `C=CC(=O)Nc1ccc(OC)c(Nc2ncc(Cl)c(-c3c[nH]c4ccccc34)n2)c1`, the half-inhibitory concentration (IC50) came to 150 nM in the data set on PC-9 [4], 20 nM in the data set on NCI-H1975 [2] and 60 nM in data set [3].
In data set [5], `CCN(CC)CCNC(=O)c1c(C)[nH]c(/C=C2\C(=O)Nc3ccccc32)c1C` came in with an IC50 of 100 nM.
Molecule `COc1cc2ncnc(Nc3ccc(F)c(Cl)c3)c2cc1OC` showed a half-life in data set [6] of 180 min.
For `Cc1cccc(Cl)c1NC(=O)c1ccc2nc(Nc3cccc(NCCO)n3)sc2c1`, the IC50 in [7] stood at 500 nM.
Turning to `Cc1cccc(Nc2ncnc3ccc(N)cc23)c1`, the values for the half-inhibitory concentration (IC50) (in the data set with KB; in data set [8]) were 1000 nM and 50 nM, respectively.
Take `Cc1cc(Nc2ncc(C(=O)Nc3c(C)cccc3Cl)s2)nc(C)n1`: the IC50 in data set [9] is 5 nM; in the data set on PC-3, 9.4 nM; in data set [10] it was 0.4 nM; in the data set on MDA-MB-231, 12 nM; in [11], 0.5 nM; in [12] it was 0.5 nM. This molecule also showed an IC50 in data set [7] of 1000 nM.
For the molecule `CC(=O)c1c(C)c2cnc(Nc3ccc(N4CCNCC4)cc3)nc2n(C2CCCC2)c1=O`, in data set [1], it took 11 nM to reach half-maximal inhibition (IC50).
For the molecule `C(=C\c1n[nH]c2cc(Sc3ccccc3)ccc12)/c1ccccc1`, the Ki in data set [13] came to 4.5 nM.
Turning to `Cc1ccc2cc(NC(=O)c3ccccc3Sc3ccc4c(/C=C/c5ccccn5)n[nH]c4c3)ccc2n1`, the concentration for half-maximal inhibition (IC50) at 72 h in [14] is 0.8 nM.
Take `COc1cc2ncnc(Nc3cccc(C)c3)c2cc1OC`: the half-life in data set [6] is 60 min. The IC50 with KB stood at 50 nM.
For the molecule `Cn1c(=O)cc(Nc2ccc(Br)cc2)c2c(=O)n(C3CC3)c(=O)n(-c3ccccc3)c21`, the figures for the 50% inhibitory concentration (IC50) in the data set on HT-29 and in the data set with ACHN were 100 nM and 1270 nM, respectively.
Turning to `Cn1c(=O)cc(Nc2ccc(Br)cc2F)c2c(=O)n(C3CC3)c(=O)n(-c3ccccc3)c21`, the IC50 worked out at 15 nM in the data set with HT-29 and 325 nM with ACHN.
In the case of `C=CC(=O)Nc1cc(Nc2ncc(Cl)c(-c3cnn4ccccc34)n2)c(OC)cc1C(C)CCNC` (centres undefined), the GI50 worked out at 180 nM in the data set with Calu-3, 4 nM in the data set with PC-9 [15] and 3 nM in the data set with NCI-H1975 [17]. The half-inhibitory concentration (IC50) turned out to be 2 nM in the data set with PC-9 [16], 6.7 µM in [18] and 0.6 nM in data set [19]. This molecule yielded a solubility in [20] of 222 µM (≈ 112 µg/mL).
Turning to `C=CC(=O)Nc1cc(Nc2ncc(Cl)c(-c3cnn4ccccc34)n2)c(OC)cc1C1CC[C@@H](N(C)C)C1` (some centres undefined), the values for the GI50 with Calu-3, in the data set with PC-9 [15] and in the data set on NCI-H1975 [17] were 380 nM, 10 nM and 7 nM, respectively. Besides, the figures for the half-maximal inhibitory concentration (IC50) (with PC-9 [16]; in data set [18]; in [19]) were 16 nM, 5.6 µM and 2 nM, respectively. For the same molecule, the concentration in solution in [20] (solubility) came to 28 µM (≈ 14.9 µg/mL).
